# Experimental data as given in patent publication US11591323B2, “Muscarinic agonists as non-steroidal and non-opioid analgesics and methods of use thereof” (Barry University, priority 2019, dated 2023).
# Tests used:
# Parameters in all cases: host or cells: CHO cells, stably transfected
# M3 muscarinic receptor [1] = target: T1, M3 muscarinic receptor (Homo sapiens, UniProt P20309); experiment: [3H]NMS competition binding, M3 CHO membranes; conditions: competition with 1 nM [3H]NMS; read-out: Inhibition constants (Ki) as negative logarithms, M3 (converted)
# M1 muscarinic receptor [2] = target: T2, M1 muscarinic receptor (Homo sapiens, UniProt P11229); experiment: accumulation of inositol phosphates IPX, M1 CHO cells (M1Gq); type: cell-based; conditions: M1 (↑IPX), preferential response, relative to carbachol; Tables 2, 3, 7
# T2 sequence (P11229 1-460): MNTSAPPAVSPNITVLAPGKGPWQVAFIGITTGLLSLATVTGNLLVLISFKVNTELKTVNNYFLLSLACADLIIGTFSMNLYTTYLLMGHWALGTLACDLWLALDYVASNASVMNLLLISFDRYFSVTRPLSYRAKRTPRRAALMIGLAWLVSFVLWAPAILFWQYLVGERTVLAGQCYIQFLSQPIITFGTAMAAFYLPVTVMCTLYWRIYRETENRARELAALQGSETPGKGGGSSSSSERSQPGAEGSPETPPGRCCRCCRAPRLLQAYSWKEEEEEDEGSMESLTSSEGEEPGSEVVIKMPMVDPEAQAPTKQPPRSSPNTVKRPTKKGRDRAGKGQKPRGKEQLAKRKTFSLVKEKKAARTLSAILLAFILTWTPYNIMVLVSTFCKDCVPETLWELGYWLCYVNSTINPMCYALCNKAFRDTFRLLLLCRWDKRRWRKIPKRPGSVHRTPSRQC
# M2 muscarinic receptor [3] = target: T3, M2 muscarinic receptor (Homo sapiens, UniProt P08172); experiment: [3H]NMS competition binding, M2 CHO membranes; conditions: competition with 1 nM [3H]NMS; read-out: Inhibition constants (Ki) as negative logarithms, M2 (converted)
# T3 sequence (P08172 1-466): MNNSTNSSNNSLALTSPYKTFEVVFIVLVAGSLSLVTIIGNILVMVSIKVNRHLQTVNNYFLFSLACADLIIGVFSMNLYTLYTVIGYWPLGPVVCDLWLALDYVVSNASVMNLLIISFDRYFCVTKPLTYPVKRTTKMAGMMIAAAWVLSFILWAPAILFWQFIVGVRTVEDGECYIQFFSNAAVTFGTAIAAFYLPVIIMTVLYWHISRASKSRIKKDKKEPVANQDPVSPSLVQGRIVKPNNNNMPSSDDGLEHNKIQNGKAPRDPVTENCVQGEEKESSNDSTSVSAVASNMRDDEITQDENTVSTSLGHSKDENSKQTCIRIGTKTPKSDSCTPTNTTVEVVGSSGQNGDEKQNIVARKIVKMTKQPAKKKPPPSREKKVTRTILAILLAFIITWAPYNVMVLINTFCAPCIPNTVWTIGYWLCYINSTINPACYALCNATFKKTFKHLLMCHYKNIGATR
# M4 muscarinic receptor [4] = target: T4, M4 muscarinic receptor (Homo sapiens, UniProt P08173); experiment: inhibition of forskolin-stimulated cAMP, M4 CHO cells (M4Gi); type: cell-based; conditions: M4 (↓cAMP), preferential response, relative to carbachol; Tables 2, 3, 7
# T4 sequence (P08173 1-479): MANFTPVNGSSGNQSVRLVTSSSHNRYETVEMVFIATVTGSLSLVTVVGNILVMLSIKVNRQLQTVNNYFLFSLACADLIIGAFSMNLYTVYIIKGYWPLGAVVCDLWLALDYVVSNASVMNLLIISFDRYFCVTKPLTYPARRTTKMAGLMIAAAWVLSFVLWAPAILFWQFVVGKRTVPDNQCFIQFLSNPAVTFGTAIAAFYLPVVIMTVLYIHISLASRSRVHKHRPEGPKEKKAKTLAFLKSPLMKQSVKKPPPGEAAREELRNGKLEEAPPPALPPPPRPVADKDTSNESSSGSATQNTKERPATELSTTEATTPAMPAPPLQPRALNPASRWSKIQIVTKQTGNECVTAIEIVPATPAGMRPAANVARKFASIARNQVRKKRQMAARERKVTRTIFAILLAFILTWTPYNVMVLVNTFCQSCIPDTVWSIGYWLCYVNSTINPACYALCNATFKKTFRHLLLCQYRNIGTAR
# M4 muscarinic receptor [5] = target: T4, M4 muscarinic receptor; experiment: [3H]NMS competition binding, M4 CHO membranes; conditions: competition with 1 nM [3H]NMS; read-out: Inhibition constants (Ki) as negative logarithms, M4 (converted)
# M1 muscarinic receptor [6] = target: T2, M1 muscarinic receptor; experiment: [3H]NMS competition binding, M1 CHO membranes; conditions: competition with 1 nM [3H]NMS; read-out: Inhibition constants (Ki) as negative logarithms, M1 (converted)
# M2 muscarinic receptor [7] = target: T3, M2 muscarinic receptor; experiment: inhibition of forskolin-stimulated cAMP, M2 CHO cells (M2Gi); type: cell-based; conditions: M2 (↓cAMP), preferential response, relative to carbachol; Tables 2, 3, 7
# M3 muscarinic receptor [8] = target: T1, M3 muscarinic receptor; experiment: accumulation of IPX, M3 CHO cells (M3Gq); type: cell-based; conditions: M3 (↑IPX), preferential response, relative to carbachol; Tables 2, 3, 7
# M5 muscarinic receptor [9] = target: T5, M5 muscarinic receptor (Homo sapiens, UniProt P08912); experiment: [3H]NMS competition binding, M5 CHO membranes; conditions: competition with 1 nM [3H]NMS; read-out: Inhibition constants (Ki) as negative logarithms, M5 (converted)
# T5 sequence (P08912 1-532): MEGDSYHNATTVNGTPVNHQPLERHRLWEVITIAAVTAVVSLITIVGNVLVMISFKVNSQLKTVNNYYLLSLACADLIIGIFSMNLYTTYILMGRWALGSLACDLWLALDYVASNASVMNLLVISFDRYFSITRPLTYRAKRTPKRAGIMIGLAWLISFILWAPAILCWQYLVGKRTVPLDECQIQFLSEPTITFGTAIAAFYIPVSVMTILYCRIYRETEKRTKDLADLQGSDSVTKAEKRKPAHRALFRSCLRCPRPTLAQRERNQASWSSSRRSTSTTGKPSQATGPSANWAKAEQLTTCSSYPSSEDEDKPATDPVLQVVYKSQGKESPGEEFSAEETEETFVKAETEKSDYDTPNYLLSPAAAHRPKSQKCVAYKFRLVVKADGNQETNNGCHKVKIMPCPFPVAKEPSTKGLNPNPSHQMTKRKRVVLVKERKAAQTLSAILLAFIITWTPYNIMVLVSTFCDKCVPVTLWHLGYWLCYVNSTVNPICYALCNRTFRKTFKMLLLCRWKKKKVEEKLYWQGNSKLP
# M5 muscarinic receptor [10] = target: T5, M5 muscarinic receptor; experiment: accumulation of IPX, M5 CHO cells (M5Gq); type: cell-based; conditions: M5 (↑IPX), preferential response, relative to carbachol; Tables 2, 3, 7
# T1 sequence (P20309 whole entry): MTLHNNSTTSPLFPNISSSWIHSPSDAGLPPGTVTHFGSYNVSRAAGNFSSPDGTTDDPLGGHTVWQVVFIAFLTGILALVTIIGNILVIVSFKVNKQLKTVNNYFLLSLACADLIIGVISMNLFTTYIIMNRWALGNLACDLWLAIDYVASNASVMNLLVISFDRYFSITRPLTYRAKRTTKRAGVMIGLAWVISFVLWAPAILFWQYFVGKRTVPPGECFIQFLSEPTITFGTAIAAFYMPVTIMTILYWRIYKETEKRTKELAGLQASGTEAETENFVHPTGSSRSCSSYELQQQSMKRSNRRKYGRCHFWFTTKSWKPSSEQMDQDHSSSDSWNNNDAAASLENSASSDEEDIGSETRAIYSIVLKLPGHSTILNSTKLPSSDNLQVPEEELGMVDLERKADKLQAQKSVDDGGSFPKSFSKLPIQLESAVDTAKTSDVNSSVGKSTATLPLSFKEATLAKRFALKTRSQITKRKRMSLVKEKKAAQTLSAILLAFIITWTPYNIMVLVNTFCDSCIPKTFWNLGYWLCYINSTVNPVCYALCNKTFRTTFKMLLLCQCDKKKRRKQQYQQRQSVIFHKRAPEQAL
smiles,measurement,setting,value
"Cc1csc(CN2CC=CCC2)c1.Cl [Compound 6E, 1-[(4-methylthiophen-2-yl)methyl]-1,2,3,6-tetrahydropyridin-1-ium chloride]",Ki,M3 muscarinic receptor [1],50.1 µM
same,RAi,M1 muscarinic receptor [2],0
same,Ki,M2 muscarinic receptor [3],12.6 µM
same,RAi,M4 muscarinic receptor [4],0
same,Ki,M4 muscarinic receptor [5],31.6 µM
same,Ki,M1 muscarinic receptor [6],31.6 µM
same,RAi,M2 muscarinic receptor [7],0
same,RAi,M3 muscarinic receptor [8],0
same,Ki,M5 muscarinic receptor [9],31.6 µM
same,RAi,M5 muscarinic receptor [10],0
